Experimental data from paper PMC7766697, “Toxicological Screening of Four Bioactive Citroflavonoids: In Vitro, In Vivo, and In Silico Approaches” (Molecules, 2020).
Read-outs that look alike come from different tables or passages of the source.

How the values were obtained:
VERO cells = experiment: MTT-based cytotoxicity assay in VERO cells; type: cell-based, green Monkey; settings: 48 h, 125 to 750 µg/mL (QRT effect at 250–750 µg/mL)
Procedure: (§1) VERO and MDCK cell lines were acquired from American Type Culture Collection (ATCC, Manassas, VA, USA). […] In vitro cytotoxicity assay was performed on Madin-Darby Canine Kidney Epithelial Cells (MDCK) and green Monkey Kidney Cells (VERO) by MTT-based assay. Briefly, cells were seeded in 96-well plates at a density of 2.5 × 10^3 cells/well. […] The absorbance was measured after 45 min using a microplate reader (Multiskan Asent®) at a wavelength of 550 nm. The criteria for categorizing cytotoxicity against MDCK and VERO cells are based on the U.S. National Cancer Institute (NCI). The criteria comprise as follow: […] All results were expressed as mean ± standard error. The results from the in vivo and in vitro experiments were analyzed using software Origin® 8.0. […] The IC50 (half inhibitory concentration) values were calculated in Origin software®, (Northampton, MA, USA) and one-way ANOVA analysis was compared with cisplatin as the control.

MDCK cells = experiment: MTT-based cytotoxicity assay in MDCK cells; type: cell-based, Canine; settings: 48 h, 125 to 750 µg/mL (QRT effect at 250 and 500 µg/mL)
Procedure: as §1

Wistar rats [1] = experiment: Acute oral toxicity, OECD Test No. 423 (mortality, signs, LD50, body weight); type: in vivo
Procedure: Female Wistar rats (250 g b.w.) were used. These animals were obtained from Bioterium from División de Ciencias de la Salud at the Universidad de Quintana Roo. They were maintained under standard environmental conditions (22 ± 3 °C, 12 h/12 h light/dark cycle), and free access to standard rodent diet and water ad libitum. All animal procedures were conducted under our Federal Regulations for Animal Experimentation and Care and were approved by the Institutional Animal Care and Use Committee of the “Universidad Juárez Autónoma de Tabasco” university (Code:2017-001, Approved: October 2017). Rats were acclimatized for 1 week before the start of experimental procedures.
The half lethal dose (LD50) was estimated using the fixed-dose method described in OECD Guidelines for the Testing of Chemicals (Test No. 423: Acute Oral Toxicity-Class Method; OECD, 2001). […] This method allowed a step-by-step assay according to the chosen dose to begin the experiment. Subsequently, depending on the presence or absence of mortality, the decision to continue within the next step is taken, so fewer experimental animals should be used.
(§2) Rats used for this experiment were fasted for 8 h and were organized into two groups of three rats for each dose and each flavonoid. Likewise, the control group received isotonic 0.9% sodium chloride solution (dose: 5 mL/kg). All rats were closely observed for toxic symptoms and behavioral changes (sedation, hyperactivity, writhing, pruritus, feeding and drinking habits, general morphological changes, and bite legs) for 30 min and periodically 24 h post-administration. Animals were observed daily (14 days) and mortality rate recorded. A LD50 was estimated according to criteria of OECD guide 423.
The rats’ body weight in each group was determined and recorded before the treatment initiation and after 14 days. Changes in the body weight at the end of the 14 days were calculated. Once observation time was completed and to detect any adverse effect, blood samples were collected by cardiac puncture after the previous fasting of 8 h. […] In addition, organ weight was determined.

Wistar rats [2] = type: in vivo
Procedure: as §2
The rats’ body weight in each group was determined and recorded before the treatment initiation and after 14 days. Changes in the body weight at the end of the 14 days were calculated. Once observation time was completed and to detect any adverse effect, blood samples were collected by cardiac puncture after the previous fasting of 8 h. For this purpose, rats were anesthetized by intraperitoneally 50 mg/kg sodium pentobarbital. The liver was carefully extracted, rinsed in normal saline, drained on blotting paper, and carefully examined for tissue lesions. In addition, organ weight was determined.
Rat blood samples were analyzed by a hematology auto-analyzer system (Sysmex XS-1000i®, SYSMEX®, Oak Ridge, TN, USA). The parameters quantified on this stage were: blood count-packed cell volume (PCV), red blood cell (RBC) count, hemoglobin (Hb), platelet count, white blood cell (WBC) count, mean cell hemoglobin concentration (MCHC), mean red cell volume (MCV), mean cell hemoglobin (MCH), prothrombin time (PT), and activated partial thromboplastin time (aPTT).

Wistar rats [3] = tested on: Wistar rats
panel of five cell lines = tested on: panel of five cell lines; parameters: method as in PMID 28662177; settings: 5–50 µg/mL; cited from earlier work
Sprague Dawley rats = tested on: Sprague Dawley rats; parameters: method as in PMID 30991075; settings: early report; cited from earlier work
Sprague-Dawley rats = tested on: Sprague-Dawley rats; parameters: method as in PMID 28662177; settings: sub-chronic oral, 13 weeks, cited from earlier work
[4] = rats, oral 300 mg/kg, after 14 days, plasma
[5] = rats, oral 2000 mg/kg, after 14 days, plasma
[6] = rats, oral 300 mg/kg, after 14 days
[7] = rats, oral 2000 mg/kg, after 14 days

## C[C@@H]1O[C@@H](O[C@H]2[C@H](Oc3cc(O)c4c(c3)O[C@H](c3ccc(O)cc3)CC4=O)O[C@H](CO)[C@@H](O)[C@@H]2O)[C@H](O)[C@H](O)[C@H]1O [NAR, naringin]
VERO cells
  percentage viability / growth of cells: did not change the percentage of growth
MDCK cells
  percentage viability / growth of cells: did not change the percentage of growth
Wistar rats [1]; oral, 14 days
  weight gain / body weight vs control: changed the body weight
Wistar rats [2]; rat, in vivo, po, 300 mg/kg
  Erythrocytes: 7.79±0.27 106/µL
  Hb: 14.03 ± 0.38 g/dL
  Hto: 40.63±1.03%
  Leukocytes: 2.65±0.30 103/µL
  MCH: 18.03 ± 0.16 pg
  MCV: 54.40 ± 1.92 fL
  Platelets: 726.00±12.26 105/µL
  RBCDW: 16.16±0.58%
Wistar rats [2]; rat, in vivo, po, 2000 mg/kg
  Erythrocytes: 7.41±0.11 106/µL
  Hb: 13.67 ± 0.16 g/dL
  Hto: 40.66±0.39%
  Leukocytes: 4.45±0.98 103/µL
  MCH: 18.43 ± 0.05 pg
  MCHC: 33.50 ± 0.14 g/dL
  MCV: 54.86 ± 0.38 fL
  Platelets: 553.00±239.61 105/µL
  RBCDW: 15.80±0.12%
Wistar rats [3]; rat, in vivo, po, 300 mg/kg
  ALB (albumin): 4.50 ± 0.02 g/dL
  ALT: 27.57 ± 0.62 IU/L
  AST: 144.58 ± 17.05 IU/L
  DB (direct bilirubin): 0.012 ± 0.0009 mg/dL
  GL (globulin): 1.97 ± 0.04 g/dL
  GLU (glucose): 125.54 ± 14.59 mg/dL
  IB (indirect bilirubin): 0.024 ± 0.0007 mg/dL
  TB (total bilirubin): 0.037 ± 0.001 mg/dL
  TP (total protein): 6.48 ± 0.04 g/dL
Wistar rats [3]; rat, in vivo, po, 2000 mg/kg
  ALB (albumin): 4.66 ± 0.16 g/dL
  ALT: 38.59 ± 1.08 IU/L
  AST: 128.26 ± 5.33 IU/L
  DB (direct bilirubin): 0.015 ± 0.001 mg/dL
  GL (globulin): 2.03 ± 0.05 g/dL
  GLU (glucose): 138.55 ± 10.48 mg/dL
  IB (indirect bilirubin): 0.025 ± 0.003 mg/dL
  TB (total bilirubin): 0.039 ± 0.004 mg/dL
  TP (total protein): 6.71 ± 0.14 g/dL
Wistar rats [3]; [4]
  ALB/GL Ratio: 2.30 ± 0.05
Wistar rats [3]; [5]
  ALB/GL Ratio: 2.32 ± 0.12
Panel of five cell lines
  cytotoxicity (mitochondrial membrane potential, cell membrane integrity, nuclear morphology): not cytotoxic

## COc1ccc([C@@H]2CC(=O)c3c(O)cc(O[C@@H]4O[C@H](CO[C@@H]5O[C@@H](C)[C@H](O)[C@@H](O)[C@H]5O)[C@@H](O)[C@H](O)[C@H]4O)cc3O2)cc1O [HESP, hesperidin]
VERO cells
  percentage viability / growth of cells: did not change the percentage of growth
MDCK cells
  percentage viability / growth of cells: did not change the percentage of growth
Wistar rats [1]; oral 300 mg/kg, days 7 and 10
  weight gain vs control: considerable weight gain differences
Wistar rats [2]; [6]
  APTT: 28.53 ± 4.31 s
  Basophils: 2.13±1.74 103/µL
  Eosinophils: 3.60±0.76 103/µL
  Erythrocytes: 7.90±0.30 106/µL
  Hb: 14.20 ± 0.37 g/dL
  Hto: 44.96±0.91%
  Leukocytes: 4.50±0.89 103/µL
  Lymphocytes: 72.27±4.36 103/µL
  MCH: 18.00 ± 0.24 pg
  MCHC: 31.56 ± 0.64 g/dL
  MCV: 57.06 ± 1.87 fL
  Monocytes: 7.07±1.50 103/µL
  PT: 17.86 ± 0.40 s
  Platelets: 720.00±125.23 105/µL
  RBCDW: 17.00±0.61%
Wistar rats [2]; [7]
  APTT: 32.53 ± 3.93 s
  Basophils: 0.00±0.00 103/µL
  Eosinophils: 3.67±0.54 103/µL
  Erythrocytes: 8.04±0.22 106/µL
  Hb: 14.20 ± 0.36 g/dL
  Hto: 43.26±0.89%
  Leukocytes: 6.68±0.72 103/µL
  Lymphocytes: 77.33±3.24 103/µL
  MCH: 17.70 ± 0.24 pg
  MCHC: 32.83 ± 0.35 g/dL
  MCV: 53.86 ± 0.37 fL
  Monocytes: 7.13±1.15 103/µL
  PT: 17.73 ± 0.50 s
  Platelets: 628.66±28.31 105/µL
  RBCDW: 17.83±1.50%
Wistar rats [3]; [4]
  ALB (albumin): 4.15 ± 0.20 g/dL
  ALB/GL Ratio: 2.36 ± 0.101
  ALT: 33.78 ± 1.30 IU/L
  AST: 126.00 ± 13.18 IU/L
  DB (direct bilirubin): 0.020 ± 0.005 mg/dL
  GL (globulin): 1.76 ± 0.069 g/dL
  GLU (glucose): 155.33 ± 18.71 mg/dL
  IB (indirect bilirubin): 0.029 ± 0.003 mg/dL
  TB (total bilirubin): 0.051 ± 0.002 mg/dL
  TP (total protein): 5.91 ± 0.25 g/dL
Wistar rats [3]; [5]
  ALB (albumin): 4.20 ± 0.22 g/dL
  ALB/GL Ratio: 2.38 ± 0.270
  ALT: 41.19 ± 2.83 IU/L
  AST: 226.65 ± 44.80 IU/L
  DB (direct bilirubin): 0.018 ± 0.005 mg/dL
  GL (globulin): 1.80 ± 0.108 g/dL
  GLU (glucose): 192.06 ± 12.73 mg/dL
  IB (indirect bilirubin): 0.046 ± 0.010 mg/dL
  TB (total bilirubin): 0.060 ± 0.06 mg/dL
  TP (total protein): 5.99 ± 0.11 g/dL
Wistar rats [3]; rats, oral, doses tested, more evident at NAR 300 and 2000 mg/kg and NARGE 300 mg/kg
  glucose values vs control: slightly amended glucose values
Sprague Dawley rats
  acute oral LD50: 4837.5 mg/kg
Sprague-Dawley rats; 1000 mg/kg
  weight gain: did at 1000 mg/kg
Sprague-Dawley rats; 250 and 500 mg/kg
  weight gain: did not modify weight gain
